How the values were obtained:
bedstraw = assay: Test B pre/postemergence bedstraw; type: in vivo, Galium aparine
In short: (§1)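 Response is a visual 0-to-10 score relative to untreated plants, where 0 means no effect and 10 means complete control, taken twelve to sixteen days after application. Treatments went onto soil at planting and onto foliage of 1- to 4-leaf plants, using a surfactant-containing non-phytotoxic solvent.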

blackgrass = assay: Test B pre/postemergence blackgrass; type: in vivo, Alopecurus myosuroides
In short: as §1

surinam grass = assay: Test B pre/postemergence surinam grass; type: in vivo, Brachiaria decumbens
In short: as §1

cocklebur = assay: Test B pre/postemergence cocklebur; type: in vivo, Xanthium strumarium
In short: as §1

corn = assay: Test B pre/postemergence corn; type: in vivo, Zea mays
In short: as §1

crabgrass = assay: Test B pre/postemergence crabgrass; type: in vivo, Digitaria sanguinalis
In short: as §1

giant foxtail = assay: Test B pre/postemergence giant foxtail; type: in vivo, Setaria faberii
In short: as §1

morningglory = assay: Test B pre/postemergence morningglory; type: in vivo, Ipomoea hederacea
In short: as §1

soybean = assay: Test B pre/postemergence soybean; type: in vivo, Glycine max
In short: as §1

velvetleaf = assay: Test B pre/postemergence velvetleaf; type: in vivo, Abutilon theophrasti; settings: for Plant response rating, Velvetleaf: Rate 250 g/ha
In short: as §1

wheat = assay: Test B pre/postemergence wheat; type: in vivo, Triticum aestivum; settings: for Plant response rating, Wheat: Rate 250 g/ha
In short: as §1

wild oat = assay: Test B pre/postemergence wild oat; type: in vivo, Avena fatua; settings: for Plant response rating, Wild oats: Rate 250 g/ha
In short: as §1

purple nutsedge = assay: Test B pre/postemergence purple nutsedge; type: in vivo, Cyperus rotundus
In short: as §1

rice = assay: Test B flood test rice; type: in vivo, Oryza sativa
In short: (§2)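 Flood test on plants grown to the 2-leaf stage; treated plants kept in greenhouse twelve to sixteen days, then visually rated against controls on a 0 (no effect) to 10 (complete control) scale.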

smallflower flatsedge = assay: Test B flood test smallflower flatsedge; type: in vivo, Cyperus difformis
In short: as §2

duck salad = assay: Test B flood test duck salad; type: in vivo, Heteranthera limosa
In short: as §2

bamyardgrass = assay: Test B flood test barnyardgrass; type: in vivo, Echinochloa crus-galli
In short: as §2

[1] = Postemergence, Rate 62 g/ha, scale 0 to 10, 0 is no effect, 10 is complete control
[2] = Postemergence, Rate 250 g/ha, scale 0 to 10, 0 no effect, 10 complete control
[3] = Preemergence, Rate 62 g/ha, scale 0 to 10 (0 no effect, 10 complete control)
[4] = Preemergence, Rate 125 g/ha, scale 0 to 10 (0 no effect, 10 complete control)
[5] = Preemergence, Rate 250 g/ha, scale of 0 to 10 where 0 is no effect and 10 is complete control
[6] = Preemergence, Rate 500 g/ha, scale 0 to 10 (0 no effect, 10 complete control)
[7] = Rate 125 g/ha, Postemergence, scale 0 to 10, 0 no effect, 10 complete control
[8] = Rate 500 g/ha, Postemergence, scale 0 to 10, 0 no effect, 10 complete control
[9] = Postemergence, Rate 125 g/ha, scale of 0 to 10 where 0 is no effect and 10 is complete control
[10] = Rate 62 g/ha, Postemergence, scale of 0 to 10 where 0 is no effect and 10 is complete control
[11] = Preemergence, Rate 125 g/ha, 0 is no effect, 10 is complete control
[12] = Preemergence, scale of 0 to 10 where 0 is no effect and 10 is complete control
[13] = Postemergence, scale 0 to 10, 0 is no effect, 10 is complete control
[14] = Postemergence (flood test species), Rate 125 g/ha, scale of 0 to 10 where 0 is no effect and 10 is complete control
[15] = Rate 62 g/ha, Postemergence section, flood test species, scale of 0 to 10 where 0 is no effect and 10 is complete control
[16] = Rate 250 g/ha, Postemergence (flood test), scale 0 to 10, 0 is no effect, 10 is complete control
[17] = Rate 250 g/ha, headed Pre-emergence (flood test species), scale 0 to 10 (0 no effect, 10 complete control)
[18] = Rate 500 g/ha, headed Pre-emergence (flood test species), scale 0 to 10 (0 no effect, 10 complete control)
[19] = Rate 500 g/ha, listed under Postemergence (flood test species), scale 0 to 10, 0 no effect, 10 complete control
[20] = Rate 1000 g/ha, Pre-emergence (as headed), scale 0 to 10
[21] = Rate 2000 g/ha, Pre-emergence (as headed), scale 0 to 10
[22] = flood test, listed under Postemergence, Rate 250 g/ha, scale 0 to 10, 0 no effect, 10 complete control

CCn1c(=O)on(C(=O)N(c2ccc(Cl)cc2)C(C)C)c1=O [Compound 108]
Bedstraw plant response rating (bedstraw; [1]): 0
Bedstraw plant response rating (bedstraw; [2]): 2
Bedstraw plant response rating (bedstraw; [3]): 0
Plant response rating, Bedstraw (bedstraw; [4]): 5
Plant response rating, Bedstraw (bedstraw; [5]): 8
Bedstraw plant response rating (bedstraw; [6]): 8
Bedstraw plant response rating (bedstraw; [7]): 0
Bedstraw plant response rating (bedstraw; [8]): 6
Blackgrass plant response rating (blackgrass; [9]): 7
Blackgrass plant response rating (blackgrass; [2]): 7
Blackgrass plant response rating (blackgrass; [3]): 5
Plant response rating, Blackgrass (blackgrass; [4]): 7
Plant response rating, Blackgrass (blackgrass; [5]): 9
Blackgrass plant response rating (blackgrass; [6]): 10
Blackgrass plant response rating (blackgrass; [10]): 4
Blackgrass plant response rating (blackgrass; [8]): 8
B. signalgrass plant response rating (surinam grass; [1]): 0
B. signalgrass plant response rating (surinam grass; [2]): 3
B. signalgrass plant response rating (surinam grass; [3]): 4
Plant response rating, B. signalgrass (surinam grass; [4]): 6
Plant response rating, B. signalgrass (surinam grass; [5]): 7
B. signalgrass plant response rating (surinam grass; [6]): 9
B. signalgrass plant response rating (surinam grass; [7]): 3
B. signalgrass plant response rating (surinam grass; Rate 500 g/ha, Postemergence, scale of 0 to 10 where 0 is no effect and 10 is complete control): 6
Cocklebur plant response rating (cocklebur; [9]): 0
Cocklebur plant response rating (cocklebur; [2]): 0
Plant response rating, Cocklebur (cocklebur; [4]): 0
Plant response rating, Cocklebur (cocklebur; [5]): 0
Cocklebur plant response rating (cocklebur; [6]): 0
Cocklebur plant response rating (cocklebur; [10]): 0
Cocklebur plant response rating (cocklebur; [8]): 2
Corn plant response rating (corn; [9]): 0
Corn plant response rating (corn; [2]): 0
Corn plant response rating (corn; [3]): 0
Plant response rating, Corn (corn; [4]): 0
Plant response rating, Corn (corn; [5]): 6
Corn plant response rating (corn; [6]): 9
Corn plant response rating (corn; [10]): 0
Corn plant response rating (corn; [8]): 0
Crabgrass plant response rating (crabgrass; [9]): 8
Crabgrass plant response rating (crabgrass; [2]): 8
Crabgrass plant response rating (crabgrass; [3]): 7
Plant response rating, Crabgrass (crabgrass; [4]): 9
Plant response rating, Crabgrass (crabgrass; [5]): 9
Crabgrass plant response rating (crabgrass; [6]): 10
Crabgrass plant response rating (crabgrass; [10]): 4
Crabgrass plant response rating (crabgrass; [8]): 9
Giant foxtail plant response rating (giant foxtail; [9]): 7
Giant foxtail plant response rating (giant foxtail; [2]): 8
Giant foxtail plant response rating (giant foxtail; [3]): 10
Plant response rating, Giant foxtail (giant foxtail; [4]): 10
Plant response rating, Giant foxtail (giant foxtail; [5]): 10
Giant foxtail plant response rating (giant foxtail; [6]): 10
Giant foxtail plant response rating (giant foxtail; [10]): 5
Giant foxtail plant response rating (giant foxtail; [8]): 8
Morningglory plant response rating (morningglory; [9]): 3
Morningglory plant response rating (morningglory; [2]): 3
Morningglory plant response rating (morningglory; [3]): 0
Plant response rating, Morningglory (morningglory; [4]): 0
Plant response rating, Morningglory (morningglory; [5]): 0
Morningglory plant response rating (morningglory; [6]): 0
Morningglory plant response rating (morningglory; [10]): 0
Morningglory plant response rating (morningglory; [8]): 3
Soybean plant response rating (soybean; [9]): 3
Soybean plant response rating (soybean; [3]): 0
Plant response rating, Soybean (soybean; [4]): 0
Plant response rating, Soybean (soybean; [5]): 0
Soybean plant response rating (soybean; [6]): 2
Soybean plant response rating (soybean; [10]): 1
Plant response rating, Soybean (soybean; Rate 250 g/ha, Postemergence, scale 0 to 10, 0 is no effect, 10 is complete control): 5
Soybean plant response rating (soybean; [8]): 5
Velvetleaf plant response rating (velvetleaf; [9]): 4
Velvetleaf plant response rating (velvetleaf; [3]): 3
Velvetleaf plant response rating (0 to 10 scale) (velvetleaf; [11]): 4
Plant response rating, Velvetleaf (velvetleaf; [12]): 4
Velvetleaf plant response rating (velvetleaf; [6]): 5
Velvetleaf plant response rating (velvetleaf; [10]): 2
Plant response rating, Velvetleaf (velvetleaf; [13]): 4
Velvetleaf plant response rating (velvetleaf; [8]): 5
Wheat plant response rating (wheat; [9]): 0
Wheat plant response rating (wheat; [3]): 0
Wheat plant response rating (0 to 10 scale) (wheat; [11]): 0
Plant response rating, Wheat (wheat; [12]): 2
Wheat plant response rating (wheat; [6]): 3
Wheat plant response rating (wheat; [10]): 0
Plant response rating, Wheat (wheat; [13]): 0
Wheat plant response rating (wheat; [8]): 2
Wild oats plant response rating (wild oat; [9]): 0
Wild oats plant response rating (wild oat; [3]): 9
Wild oats plant response rating (0 to 10 scale) (wild oat; [11]): 9
Plant response rating, Wild oats (wild oat; [12]): 9
Wild oats plant response rating (wild oat; [6]): 9
Wild oats plant response rating (wild oat; [10]): 0
Plant response rating, Wild oats (wild oat; [13]): 3
Wild oats plant response rating (wild oat; [8]): 3
Nutsedge plant response rating (purple nutsedge; [9]): 3
Nutsedge plant response rating (purple nutsedge; [2]): 4
Nutsedge plant response rating (purple nutsedge; [3]): 0
Plant response rating, Nutsedge (purple nutsedge; [4]): 0
Plant response rating, Nutsedge (purple nutsedge; [5]): 0
Nutsedge plant response rating (purple nutsedge; [6]): 0
Nutsedge plant response rating (purple nutsedge; [10]): 0
Nutsedge plant response rating (purple nutsedge; [8]): 4
Rice plant response rating (rice; [14]): 0
Rice plant response rating (rice; [15]): 0
Plant response rating, Rice (rice; [16]): 0
Rice plant response rating (rice; [17]): 0
Plant response rating, Rice (rice; [18]): 0
Rice plant response rating (rice; [19]): 0
Rice plant response rating (rice; [20]): 0
Rice plant response rating (rice; [21]): 0
S. Flatsedge plant response rating (smallflower flatsedge; [14]): 0
S. Flatsedge plant response rating (smallflower flatsedge; Pre-emergence, Rate 1000 g/ha, scale 0 to 10 (0 no effect, 10 complete control)): 0
S. Flatsedge plant response rating (smallflower flatsedge; [15]): 0
Plant response rating, S. Flatsedge (smallflower flatsedge; [16]): 0
S. Flatsedge plant response rating (smallflower flatsedge; [17]): 0
Plant response rating, S. Flatsedge (smallflower flatsedge; [18]): 0
S. Flatsedge plant response rating (smallflower flatsedge; [19]): 0
S. Flatsedge plant response rating (smallflower flatsedge; [21]): 0
Ducksalad plant response rating (duck salad; [14]): 0
Ducksalad plant response rating (duck salad; [15]): 0
Ducksalad plant response rating (duck salad; [17]): 0
Plant response rating, Ducksalad (duck salad; [18]): 0
Ducksalad plant response rating (duck salad; [19]): 0
Ducksalad plant response rating (duck salad; [20]): 0
Ducksalad plant response rating (duck salad; [21]): 0
Ducksalad plant response rating (duck salad; [22]): 0
Barnyardgrass plant response rating (bamyardgrass; [1]): 0
Barnyardgrass plant response rating (bamyardgrass; Rate 125 g/ha, Postemergence section (flood test species), scale 0 to 10, 0 no effect, 10 complete control): 0
Barnyardgrass plant response rating (bamyardgrass; [17]): 0
Plant response rating, Barnyardgrass (bamyardgrass; [18]): 0
Barnyardgrass plant response rating (bamyardgrass; [19]): 0
Barnyardgrass plant response rating (bamyardgrass; [20]): 0
Barnyardgrass plant response rating (bamyardgrass; Rate 2000 g/ha, Pre-emergence (as headed), scale 0 to 10, 0 no effect, 10 complete control): 0
Barnyardgrass plant response rating (bamyardgrass; [22]): 0

From patent US6737383B1, “Herbicidal oxadiazolidines” (priority 1999, dated 2004)
